In experiment [1] the target is T1, human equilibrative nucleoside transporter 1 (hENT1) (Homo sapiens, UniProt Q99808).
T1 sequence (Q99808 2-456): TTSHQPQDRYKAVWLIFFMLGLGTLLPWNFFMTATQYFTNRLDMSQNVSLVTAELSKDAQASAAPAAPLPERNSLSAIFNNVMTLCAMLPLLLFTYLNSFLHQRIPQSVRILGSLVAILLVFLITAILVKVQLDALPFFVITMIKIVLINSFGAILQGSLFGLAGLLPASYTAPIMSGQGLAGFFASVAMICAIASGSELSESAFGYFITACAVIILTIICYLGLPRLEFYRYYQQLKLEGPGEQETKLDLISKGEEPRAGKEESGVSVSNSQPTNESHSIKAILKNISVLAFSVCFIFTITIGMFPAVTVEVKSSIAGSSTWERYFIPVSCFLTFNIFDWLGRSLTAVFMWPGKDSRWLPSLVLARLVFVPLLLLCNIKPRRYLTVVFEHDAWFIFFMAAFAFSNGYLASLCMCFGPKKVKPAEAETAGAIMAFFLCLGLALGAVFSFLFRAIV
In words: inhibition of initial rate of 3H-uridine. Type of experiment: cell-based.

Experiment [2] deals with T1, human equilibrative nucleoside transporter 1 (hENT1). In words: inhibition of initial rate of 3H-uridine. The format is cell-based. This is another data set of the same source.

Read-outs that look alike come from different tables or passages of the source. A value given as a limit tells only on which side of the number the result lay.

In the case of `O=[N+]([O-])c1ccc(CNc2ncnc3c2ccn3[C@@H]2O[C@H](CO)[C@@H](O)[C@H]2O)cc1` [2b, 4-(4-Nitrobenzylamino)-7-(β-D-ribofuranosyl)pyrrolo[2,3-d]pyrimidine], in experiment [1], the IC50 – broadly, the point on the concentration scale where inhibition reaches its midpoint – is > 1 µM.
In turn, `NC(=O)c1cn([C@@H]2O[C@H](CO)[C@@H](O)[C@H]2O)c2ncnc(NCc3ccc([N+](=O)[O-])cc3)c12` [2c, 5-Carboxamido-4-(4-nitrobenzylamino)-7-(β-D-ribofuranosyl)pyrrolo[2,3-d]pyrimidine] had an IC50 in experiment [2] of 0.123 ± 0.031 µM.

The values above are taken from PMC4149842 (ChemMedChem, 2014).
